Experiments:
[1] = biological target: human activated kallikrein enzyme (Homo sapiens, UniProt P03952); experiment: Plasma kallikrein inhibition, fluorogenic PFR-AMC substrate, 500 pM activated kallikrein format; type: biochemical; conditions: 500 pM activated kallikrein, 300 uM PFR-AMC, 30 min preincubation, 10 min reaction; read-out: Primary Dose Response Assay: Average EC50
Method in brief: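 Enzyme (500 pM) was preincubated with inhibitor for 30 min at room temperature in 20 mM Tris pH 7.5, 1 mM EDTA, 150 mM NaCl, 0.1% PEG-400 and 0.1% Triton X-100. The reaction was started with 300 uM PFR-AMC, run 10 min, and fluorescence read at 460 nm (380 nm excitation). EC50 derived.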

plasma kallikrein = biological target: T1, plasma kallikrein (Homo sapiens, UniProt P03952); experiment: Neat human plasma assay, FXIIa contact pathway-activated, PFR-AMC substrate; type: biochemical; conditions: citrated human plasma 78% final, 10 nM human FXIIa, 100 μM PFR-AMC; read-out: Human Plasma Assay: IC90
T1 construct: from tissue
T1 sequence (P03952 391-638 limits assumed): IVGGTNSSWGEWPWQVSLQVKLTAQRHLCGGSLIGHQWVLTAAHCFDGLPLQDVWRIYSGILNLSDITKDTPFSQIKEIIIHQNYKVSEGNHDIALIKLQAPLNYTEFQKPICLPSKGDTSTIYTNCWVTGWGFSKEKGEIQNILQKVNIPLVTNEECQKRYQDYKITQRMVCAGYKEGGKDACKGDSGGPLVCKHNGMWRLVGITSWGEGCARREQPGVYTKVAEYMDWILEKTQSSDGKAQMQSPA
T1 sequence (P03952 20-390 partner limits assumed): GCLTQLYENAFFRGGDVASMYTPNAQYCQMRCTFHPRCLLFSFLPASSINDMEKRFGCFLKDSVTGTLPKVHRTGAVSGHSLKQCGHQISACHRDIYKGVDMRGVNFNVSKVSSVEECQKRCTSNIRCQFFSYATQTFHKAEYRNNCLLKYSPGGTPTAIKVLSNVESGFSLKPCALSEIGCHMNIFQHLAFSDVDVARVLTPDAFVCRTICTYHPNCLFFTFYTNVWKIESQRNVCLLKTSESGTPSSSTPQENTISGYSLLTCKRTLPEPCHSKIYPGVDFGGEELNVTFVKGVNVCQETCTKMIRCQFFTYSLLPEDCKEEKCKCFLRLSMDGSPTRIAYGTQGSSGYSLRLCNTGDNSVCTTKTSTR
Method in brief: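 Citrated human plasma (78% final) with compound, contact-activated by 10 nM human FXIIa in pKal buffer pH 7.5, with 100 μM PFR-AMC. Fluorescence (360/480 nm) followed 5 min at room temperature; rates versus concentration fitted by 4-parameter equation for IC50/IC90.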

human activated kallikrein enzyme, sequence (P03952 391-638 limits assumed): as the sequence (P03952 391-638 limits assumed) above
human activated kallikrein enzyme, sequence (P03952 20-390 partner limits assumed): as the sequence (P03952 20-390 partner limits assumed) above

Structure (SMILES)	EC50 [1] [nM]	IC90 (plasma kallikrein) [nM]
COc1nc(NC(=O)[C@H]2C[C@@H]2c2nccc(C)n2)cc(N[C@H](C)c2cn3cc(C4CC4)cc(N4CC(=O)N(C)C4=O)c3n2)n1 [Example 407, (1S,2S)-N-(6-(((R)-1-(6-cyclopropyl-8-(3-methyl-2,4-dioxoimidazolidin-1-yl)imidazo[1,2-a]pyridin-2-yl)ethyl)amino)-2-methoxypyrimidin-4-yl)-2-(4-methylpyrimidin-2-yl)cyclopropane-1-carboxamide]	< 1	400 to 1500
CN1CC(=O)N(c2cc(C3CC3)cn3cc(CNc4cc(NC(=O)[C@H]5C[C@@H]5c5cccc(Cl)c5)ncn4)nc23)CC1=O [Example 404, (1S,2S)-2-(3-chlorophenyl)-N-(6-(((6-cyclopropyl-8-(4-methyl-2,5-dioxopiperazin-1-yl)imidazo[1,2-a]pyridin-2-yl)methyl)amino)pyrimidin-4-yl)cyclopropane-1-carboxamide]	< 1	400 to 1500
Cc1ccnc([C@H]2C[C@@H]2C(=O)Nc2cc(SCc3cn4cc(C5CC5)cc(N5CC(=O)N(C)C5=O)c4n3)nc(C)n2)n1 [Example I-638, (1S,2S)—N-(6-(((6-cyclopropyl-8-(3-methyl-2,4-dioxoimidazolidin-1-yl)imidazo[1,2-a]pyridin-2-yl)methyl)thio)-2-methylpyrimidin-4-yl)-2-(4-methylpyrimidin-2-yl)cyclopropane-1-carboxamide]	< 1	400 to 1500
COc1nc(NC(=O)[C@H]2C[C@@H]2c2nccc(C)n2)cc(N(C)Cc2cn3cc(C4CC4)cc(N4CC(=O)N(C)C4=O)c3n2)n1 [Example 406, (1S,2S)-N-(6-(((6-cyclopropyl-8-(3-methyl-2,4-dioxoimidazolidin-1-yl)imidazo[1,2-a]pyridin-2-yl)methyl)(methyl)amino)-2-methoxypyrimidin-4-yl)-2-(4-methylpyrimidin-2-yl)cyclopropane-1-carboxamide]	< 1	< 400
Cc1ccnc([C@H]2C[C@@H]2C(=O)Nc2cc(N[C@H](C)c3cn4cc(C5CC5)cc(S(C)(=O)=O)c4n3)nc(C)n2)n1 [Example 361, (1S,2S)-N-(6-(((R)-1-(6-cyclopropyl-8-(methylsulfonyl)imidazo[1,2-a]pyridin-2-yl)ethyl)amino)-2-methylpyrimidin-4-yl)-2-(4-methylpyrimidin-2-yl)cyclopropane-1-carboxamide]	< 1	400 to 1500
Cc1ccnc([C@@]2(F)C[C@@H]2C(=O)Nc2cc(N[C@H](C)c3cn4cc(C5CC5)cc(N5CC(=O)N(C)C5=O)c4n3)nc(C)n2)n1 (racemic) [Example 546, rac-(1S*,2S*)—N-(6-(((R)-1-(6-cyclopropyl-8-(3-methyl-2,4-dioxoimidazolidin-1-yl)imidazo[1,2-a]pyridin-2-yl)ethyl)amino)-2-methylpyrimidin-4-yl)-2-fluoro-2-(4-methylpyrimidin-2-yl)cyclopropane-1-carboxamide]	< 1	400 to 1500
Cc1ccnc([C@H]2C[C@@H]2C(=O)Nc2ncc(F)c(N(C)Cc3cn4cc(C5CC5)cc(N5CC(=O)NC5=O)c4n3)n2)n1 (racemic) [Example 516, rac-(1S*,2S*)-N-(4-(((6-cyclopropyl-8-(2,4-dioxoimidazolidin-1-yl)imidazo[1,2-a]pyridin-2-yl)methyl)(methyl)amino)-5-fluoropyrimidin-2-yl)-2-(4-methylpyrimidin-2-yl)cyclopropane-1-carboxamide]	< 1	< 400
Cc1ccnc([C@H]2C[C@@H]2C(=O)Nc2cc(NC(C)c3cn4cc(C5CC5)cc(N5CC(=O)N(C)C5=O)c4n3)nc(C)n2)n1 (stereo partly drawn) [Example 454, (1S,2S)—N-(6-((1-(6-cyclopropyl-8-(3-methyl-2,4-dioxoimidazolidin-1-yl)imidazo[1,2-a]pyridin-2-yl)ethyl)amino)-2-methylpyrimidin-4-yl)-2-(4-methylpyrimidin-2-yl)cyclopropane-1-carboxamide]	< 1	400 to 1500
CN1C(=O)CN(Cc2cc(C3CC3)cn3cc(CNc4cc(NC(=O)[C@H]5C[C@@H]5c5cccc(Cl)c5)ncn4)nc23)C1=O [Example 400, (1S,2S)-2-(3-chlorophenyl)-N-(6-(((6-cyclopropyl-8-((3-methyl-2,4-dioxoimidazolidin-1-yl)methyl)imidazo[1,2-a]pyridin-2-yl)methyl)amino)pyrimidin-4-yl)cyclopropane-1-carboxamide]	1 to 10	1500 to 10000
O=C(Nc1cc(NCc2cn3cc(C4CC4)cc(-c4ccc[nH]c4=O)c3n2)ncn1)[C@H]1C[C@@H]1c1cccc(Cl)c1 [Example 305, (1S,2S)-2-(3-chlorophenyl)-N-(6-(((6-cyclopropyl-8-(2-oxo-1,2-dihydropyridin-3-yl)imidazo[1,2-a]pyridin-2-yl)methyl)amino)pyrimidin-4-yl)cyclopropane-1-carboxamide]	1 to 10	1500 to 10000
Cc1ccnc([C@H]2C[C@@H]2C(=O)Nc2cc(OCc3cn4cc(C5CC5)cc(S(C)(=O)=O)c4n3)cnn2)n1 [Example 561, (1S,2S)-N-(5-((6-cyclopropyl-8-(methylsulfonyl)imidazo[1,2-a]pyridin-2-yl)methoxy)pyridazin-3-yl)-2-(4-methylpyrimidin-2-yl)cyclopropane-1-carboxamide]	< 1	< 400
CC(=O)Nc1cc(C2CC2)cn2cc(CNc3cc(NC(=O)[C@H]4C[C@@H]4c4cccc(Cl)c4)ncn3)nc12 [Example 275, (1S,2S)—N-(6-(((8-acetamido-6-cyclopropylimidazo[1,2-a]pyridin-2-yl)methyl)amino)pyrimidin-4-yl)-2-(3-chlorophenyl)cyclopropane-1-carboxamide]	1 to 10	1500 to 10000
O=C1CN(c2cc(C3CC3)cn3cc(CNc4cc(NC(=O)[C@H]5C[C@@H]5c5cccc(Cl)c5)ncn4)nc23)C(=O)N1 [Example 396, (1S,2S)-2-(3-chlorophenyl)-N-(6-(((6-cyclopropyl-8-(2,4-dioxoimidazolidin-1-yl)imidazo[1,2-a]pyridin-2-yl)methyl)amino)pyrimidin-4-yl)cyclopropane-1-carboxamide]	< 1	400 to 1500
CC(=O)Nc1cc(C2CC2)cn2cc(CNc3ccnc(NC(=O)[C@H]4C[C@@H]4c4cccc(Cl)c4)c3)nc12 [Example 142, (1S,2S)-N-(4-(((8-acetamido-6-cyclopropylimidazo[1,2-a]pyridin-2-yl)methyl)amino)pyridin-2-yl)-2-(3-chlorophenyl)cyclopropane-1-carboxamide]	< 1	1500 to 10000
CN1CCN(c2cc(C3CC3)cn3cc(CNc4cc(NC(=O)[C@H]5C[C@@H]5c5cccc(Cl)c5)ncn4)nc23)CC1=O [Example I-153, (1S,2S)-2-(3-chlorophenyl)-N-(6-(((6-cyclopropyl-8-(4-methyl-3-oxopiperazin-1-yl)imidazo[1,2-a]pyridin-2-yl)methyl)amino)pyrimidin-4-yl)cyclopropane-1-carboxamide]	1 to 10	1500 to 10000
Cc1ccnc([C@H]2C[C@@H]2C(=O)Nc2cc(NCc3cn4cc(C5CC5)cc(N5CCCC5=O)c4n3)ncn2)n1 [Example 377, (1S,2S)-N-(6-(((6-cyclopropyl-8-(2-oxopyrrolidin-1-yl)imidazo[1,2-a]pyridin-2-yl)methyl)amino)pyrimidin-4-yl)-2-(4-methylpyrimidin-2-yl)cyclopropane-1-carboxamide]	< 1	400 to 1500
N#CCCc1cc(C2CC2)cn2cc(CNc3ccnc(NC(=O)[C@H]4C[C@@H]4c4cccc(Cl)c4)c3)nc12 (racemic) [Example 87, rac-(1S*,2S*)-2-(3-chlorophenyl)-N-(4-(((8-(2-cyanoethyl)-6-cyclopropylimidazo[1,2-a]pyridin-2-yl)methyl)amino)pyridin-2-yl)cyclopropane-1-carboxamide]	1 to 10	10000 to 48000
O=C(Nc1cc(NCc2cn3cc(C4CC4)cc(N4CCN5CCCC5C4)c3n2)ccn1)[C@H]1C[C@@H]1c1cccc(Cl)c1 (stereo partly drawn) [Example I-231, (1S,2S)-2-(3-chlorophenyl)-N-(4-(((6-cyclopropyl-8-(hexahydropyrrolo[1,2-a]pyrazin-2(1H)-yl)imidazo[1,2-a]pyridin-2-yl)methyl)amino)pyridin-2-yl)cyclopropane-1-carboxamide]	< 1	400 to 1500
COc1nc(NC(=O)[C@H]2C[C@@H]2c2nccc(C)n2)cc(OCc2cn3cc(C4CC4)cc(N4CC(=O)N(C)C4=O)c3n2)n1 [Example 556, (1S,2S)-N-(6-((6-cyclopropyl-8-(3-methyl-2,4-dioxoimidazolidin-1-yl)imidazo[1,2-a]pyridin-2-yl)methoxy)-2-methoxypyrimidin-4-yl)-2-(4-methylpyrimidin-2-yl)cyclopropane-1-carboxamide]	< 1	400 to 1500
O=C(Nc1cc(NCc2cn3cc(C4CC4)cc(COCCO)c3n2)ccn1)[C@H]1C[C@@H]1c1cccc(Cl)c1 [Example 288, (1S,2S)-2-(3-chlorophenyl)-N-(4-(((6-cyclopropyl-8-((2-hydroxyethoxy)methyl)imidazo[1,2-a]pyridin-2-yl)methyl)amino)pyridin-2-yl)cyclopropane-1-carboxamide]	< 1	1500 to 10000
Cc1ccnc([C@H]2C[C@@H]2C(=O)Nc2cc(NCc3cn4cc(C5CC5)cc(N5CC(=O)N(CCO)C5=O)c4n3)ncn2)n1 [Example 464, (1S,2S)-N-(6-(((6-cyclopropyl-8-(3-(2-hydroxyethyl)-2,4-dioxoimidazolidin-1-yl)imidazo[1,2-a]pyridin-2-yl)methyl)amino)pyrimidin-4-yl)-2-(4-methylpyrimidin-2-yl)cyclopropane-1-carboxamide]	< 1	< 400

— patent US20240228488A1 (TAKEDA PHARMACEUTICAL COMPANY LIMITED, priority 2021, published 2024)
